In assay [1] the target is T1, complement C5a receptor 1 (C5aR1) (Homo sapiens, UniProt P21730).
T1 construct: β-galactosidase fragment (PathHunter enzyme complementation); host or cells: CHO-K1 (PathHunter CHO-K1 C5aR1 β-arrestin cell line)
T1 sequence (P21730 1-350): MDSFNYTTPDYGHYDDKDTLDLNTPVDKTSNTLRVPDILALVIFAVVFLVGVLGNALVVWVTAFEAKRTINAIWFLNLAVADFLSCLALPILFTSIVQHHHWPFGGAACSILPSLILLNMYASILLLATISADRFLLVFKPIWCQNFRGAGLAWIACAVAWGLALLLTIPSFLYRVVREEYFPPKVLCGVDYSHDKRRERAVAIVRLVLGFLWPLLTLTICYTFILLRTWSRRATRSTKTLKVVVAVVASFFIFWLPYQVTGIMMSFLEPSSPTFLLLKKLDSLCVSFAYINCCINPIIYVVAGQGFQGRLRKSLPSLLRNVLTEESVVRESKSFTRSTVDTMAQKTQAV
The experiment in a line: β-arrestin recruitment via C5aR1 activation in live CHO-K1 cells (PathHunter), agonist mode. In kind it is cell-based. An outline of the steps: (§1)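 Live CHO-K1 cells carry two galactosidase enzyme fragments, one fused to β-arrestin and one to C5aR1, so that β-arrestin recruitment restores enzyme activity. Agonist mode tests compounds alone. Antagonist mode tests them against recombinant hC5a at EC90, and IC50 values are reported in binned ranges.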
A general note: Arrestin recruitment assays detect the binding of arrestin to an activated receptor.

Assay [2] addresses T1, complement C5a receptor 1 (C5aR1). The assay is described as follows: β-arrestin recruitment via C5aR1 activation in live CHO-K1 cells (PathHunter), antagonist mode. In kind it is cell-based. An outline of the steps:
as §1

Where [3] appears, read: antagonist mode, recombinant hC5a (EC90) as competing natural agonist, live CHO-K1 cells, read-out: [Antagonist] B-arrestin2 recruitment: Average IC50.

Like-named read-outs stand apart in the source and are kept apart here.

The text below walks through data of patent US20260317320A1, “C5AR1 ANTAGONISTS AND USES THEREOF” (Vanqua Bio, Inc., priority 2022, published 2026).

As to `Cc1c(C2CCN(c3ccccc3C(F)(F)F)CC2)c(=O)n(Cc2ccccc2F)c2nccnc12` [compound 7, 5-(2-Fluorobenzyl)-8-methyl-7-(1-(2-(trifluoromethyl)phenyl)piperidin-4-yl)pyrido[2,3-b]pyrazin-6(5H)-one], the “[Agonist] B-arrestin2 recruitment: Average EC50 (nM)” value (shortened to “[Agonist] B-arrestin2 recruitment”) in assay [1] was “Non-Active”. Moreover, the half-inhibitory concentration (IC50) – broadly, the concentration at which inhibition is half-maximal – in assay [2] (setting [3]) was less than 500 nM.
The like results for `Cc1cnc2cc([C@H]3CC[C@H](c4cnsc4C)CC3)c(=O)n(Cc3ncccc3OC(F)(F)F)c2n1` [compound 253, 3-Methyl-7-[(1r,4r)-4-(5-methyl-4-isothiazolyl)cyclohexyl]-5-[(3-trifluoromethoxy-2-pyridyl)methyl]-1,4,5-triaza-6(5H)-naphthalenone] were, in that order, “Non-Active” and less than 500 nM.
Regarding `Cc1cnc2cc(C3CCN(c4ccc5c(cnn5C)c4)CC3)c(=O)n(Cc3ncccc3C(F)(F)F)c2n1` [compound 181, 3-Methyl-7-(1-(1-methyl-1H-indazol-5-yl)piperidin-4-yl)-5-((3-(trifluoromethyl)pyridin-2-yl)methyl)pyrido[2,3-b]pyrazin-6(5H)-one], the “[Agonist] B-arrestin2 recruitment” value in assay [1] (at 10 μM) is reported as “Non-Active at 10 μM”. Also, in assay [2] (setting [3]), the concentration for half-maximal inhibition (IC50) was 5000 to 100000 nM.
For `Cc1cnc2cc([C@H]3CC[C@@H](c4c(C)cccc4F)CC3)c(=O)n(Cc3nccnc3C(F)F)c2n1` [148A, 5-((3-(Difluoromethyl)pyrazin-2-yl)methyl)-7-((1s,4s)-4-(2-fluoro-6-methylphenyl)cyclohexyl)-3-methylpyrido[2,3-b]pyrazin-6(5H)-one], in assay [1], the “[Agonist] B-arrestin2 recruitment” value is “Non-Active”. The IC50 in assay [2] (setting [3]) lay in the range of 500 to 5000 nM.
Consider `Cc1ccnc(F)c1N1CCC(c2cc3nccnc3n(Cc3ccccc3C(F)(F)F)c2=O)CC1` [compound 31, 7-(1-(2-Fluoro-4-methylpyridin-3-yl)piperidin-4-yl)-5-(2-(trifluoromethyl)benzyl)pyrido[2,3-b]pyrazin-6(5H)-one], for which the “[Agonist] B-arrestin2 recruitment” value in assay [1] is given as “Non-Active”. In assay [2] (setting [3]), the IC50 is less than 500 nM.
For `Cc1cnc2cc([C@H]3CC[C@H](c4c(C)cccc4F)CC3)c(=O)n(Cc3ncccc3OC(F)F)c2n1` [compound 212, 5-((3-(Difluoromethoxy)pyridin-2-yl)methyl)-7-((1r,4r)-4-(2-fluoro-6-methylphenyl)cyclohexyl)-3-methylpyrido[2,3-b]pyrazin-6(5H)-one], the “[Agonist] B-arrestin2 recruitment” value in assay [1] (at 10 μM) was “Non-Active at 10 μM”. The concentration for half-maximal inhibition (IC50) in assay [2] (setting [3]) was less than 500 nM.
The like results for `Cc1cnc2cc([C@H]3CC[C@H](c4c(F)ccc5cnn(C)c54)CC3)c(=O)n(Cc3ncccc3C(F)(F)F)c2n1` [compound 217, 3-Methyl-7-[(1r,4r)-4-(6-fluoro-1-methylindazol-7-yl)cyclohexyl]-5-{[3-(trifluoromethyl)pyridin-2-yl]methyl}pyrido[2,3-b]pyrazin-6-one] were, in that order, “Non-Active at 10 μM” and 5000 to 100000 nM.
As to `Cc1ccc2cc([C@H]3CC[C@H](c4c(C)cccc4F)CC3)c(=O)n(Cc3ncccc3CC(F)(F)F)c2n1` [compound 239, 3-((1r,4r)-4-(2-fluoro-6-methylphenyl)cyclohexyl)-7-methyl-1-((3-(2,2,2-trifluoroethyl)pyridin-2-yl)methyl)-1,8-naphthyridin-2(1H)-one], in assay [1], the “[Agonist] B-arrestin2 recruitment” value is given as “Non-Active”. The concentration for half-maximal inhibition (IC50) in assay [2] (setting [3]) was less than 500 nM.
Take `Cc1cccc(F)c1N1CCC(c2cc3nccnc3n(Cc3cnc(C(F)(F)F)cn3)c2=O)CC1` [compound 27, 7-(1-(2-Fluoro-6-methylphenyl)piperidin-4-yl)-5-((5-(trifluoromethyl)pyrazin-2-yl)methyl)pyrido[2,3-b]pyrazin-6(5H)-one]: the “[Agonist] B-arrestin2 recruitment” value in assay [1] is given as “Non-Active”. Also, the IC50 in assay [2] is greater than 100000 nM.
Turning to `Cc1cnc2cc([C@@H]3CC[C@H](c4c(C)cccc4F)C3)c(=O)n(Cc3nccnc3C)c2n1` [172B, 7-((1R,3S)-3-(2-Fluoro-6-methylphenyl)cyclopentyl)-3-methyl-5-((3-methylpyrazin-2-yl)methyl)pyrido[2,3-b]pyrazin-6(5H)-one], in assay [1] (at 10 μM), the “[Agonist] B-arrestin2 recruitment” value is recorded as “Non-Active at 10 μM”. In addition, the concentration for half-maximal inhibition (IC50) in assay [2] (setting [3]) lay in the range of 500 to 5000 nM.
In the same order, the values of `Cc1ccc2c(c1)nc(C1CCN(c3c(C)cccc3F)CC1)c(=O)n2Cc1nccnc1C(F)(F)F` [144B, 3-(1-(2-Fluoro-6-methylphenyl)piperidin-4-yl)-6-methyl-1-((3-(trifluoromethyl)pyrazin-2-yl)methyl)quinoxalin-2(1H)-one] are “Non-Active at 10 μM” and greater than 100000 nM.
On to `Cc1cccc(F)c1N1CCC(c2cc3nccnc3n([C@H]3CCc4nccnc43)c2=O)CC1` [160A, (S)-5-(6,7-Dihydro-5H-cyclopenta[b]pyrazin-5-yl)-7-(1-(2-fluoro-6-methylphenyl)piperidin-4-yl)pyrido[2,3-b]pyrazin-6(5H)-one], for which the “[Agonist] B-arrestin2 recruitment” value in assay [1] (at 10 μM) is listed as “Non-Active at 10 μM”. Further, the concentration for half-maximal inhibition (IC50) in assay [2] (setting [3]) is 5000 to 100000 nM.
In the case of `Cc1cccc(F)c1N1CCC(c2cc3nccnc3n(Cc3ccccc3F)c2=O)CC1` [compound 35, 7-(1-(2-Fluoro-6-methylphenyl)piperidin-4-yl)-5-(2-fluorobenzyl)pyrido[2,3-b]pyrazin-6(5H)-one], the “[Agonist] B-arrestin2 recruitment” value in assay [1] was “Non-Active”. Besides, the IC50 in assay [2] (setting [3]) was less than 500 nM.
In the same order, the values of `Cc1cnc2cc(N3CCN(c4cc(F)cnc4C)CC3)c(=O)n(Cc3nccnc3C(F)(F)F)c2n1` [compound 59, 7-(4-(5-Fluoro-2-methylpyridin-3-yl)piperazin-1-yl)-3-methyl-5-((3-(trifluoromethyl)pyrazin-2-yl)methyl)pyrido[2,3-b]pyrazin-6(5H)-one] are “Non-Active” and greater than 100000 nM.
As for `O=c1c(C2CCN(c3ccccc3C(F)(F)F)CC2)cc2nccnc2n1Cc1ccccc1F` [compound 10, 5-(2-fluorobenzyl)-7-(1-(2-(trifluoromethyl)phenyl)piperidin-4-yl)pyrido[2,3-b]pyrazin-6(5H)-one], the “[Agonist] B-arrestin2 recruitment” value in assay [1] was “Non-Active”. In addition, the 50% inhibitory concentration (IC50) in assay [2] (setting [3]) is less than 500 nM.
The like results for `Cc1cnc2cc(C3CCN(c4c(C)cccc4F)CC3)c(=O)n(Cc3ncccc3C(F)(F)F)c2n1` [compound 41, 7-(1-(2-Fluoro-6-methylphenyl)piperidin-4-yl)-3-methyl-5-((3-(trifluoromethyl)pyridin-2-yl)methyl)pyrido[2,3-b]pyrazin-6(5H)-one] were, in that order, “Non-Active” and less than 500 nM.
As for `Cc1ccc2cc([C@H]3CC[C@H](c4cnccc4C(F)(F)F)CC3)c(=O)n(Cc3ncccc3C(F)(F)F)c2n1` [compound 251, 7-Methyl-1-((3-(trifluoromethyl)pyridin-2-yl)methyl)-3-((1r,4r)-4-(4-(trifluoromethyl)pyridin-3-yl)cyclohexyl)-1,8-naphthyridin-2(1H)-one], the “[Agonist] B-arrestin2 recruitment” value in assay [1] (at 10 μM) was “Non-Active at 10 μM”. Further, the IC50 in assay [2] (setting [3]) is less than 500 nM.
Consider `Cc1ccc2cc([C@H]3CC[C@H](c4c(C)cccc4F)CC3)c(=O)n(Cc3nccnc3C(F)(F)F)c2n1` [compound 194, 3-((1r,4r)-4-(2-Fluoro-6-methylphenyl)cyclohexyl)-7-methyl-1-((3-(trifluoromethyl)pyrazin-2-yl)methyl)-1,8-naphthyridin-2(1H)-one], for which, in assay [1], the “[Agonist] B-arrestin2 recruitment” value is listed as “Non-Active”. For the same compound, the 50% inhibitory concentration (IC50) in assay [2] (setting [3]) is less than 500 nM.
In the same order, the values of `Cc1cnc2cc([C@H]3CC[C@@H](c4c(C)cccc4F)C3)c(=O)n(Cc3ncccc3OC(F)F)c2n1` [175A, 5-((3-(Difluoromethoxy)pyridin-2-yl)methyl)-7-((1S,3R)-3-(2-fluoro-6-methylphenyl)cyclopentyl)-3-methylpyrido[2,3-b]pyrazin-6(5H)-one] are “Non-Active” and less than 500 nM.
Take `CCc1cnc2cc([C@H]3CC[C@H](c4c(C)cccc4F)CC3)c(=O)n(Cc3ncccc3C(F)(F)F)c2n1` [compound 201, 3-Ethyl-7-((1r,4r)-4-(2-fluoro-6-methylphenyl)cyclohexyl)-5-((3-(trifluoromethyl)pyridin-2-yl)methyl)pyrido[2,3-b]pyrazin-6(5H)-one]: the “[Agonist] B-arrestin2 recruitment” value in assay [1] (at 10 μM) was “Non-Active at 10 μM”. For the same compound, the IC50 in assay [2] (setting [3]) was less than 500 nM.
`Cc1cccc(F)c1N1CCC(c2cc3nccnc3n(Cc3nccnc3C(F)(F)F)c2=O)C1` (centres unmarked) [compound 23, 7-(1-(2-Fluoro-6-methylphenyl)pyrrolidin-3-yl)-5-((3-(trifluoromethyl)pyrazin-2-yl)methyl) pyrido[2,3-b]pyrazin-6(5H)-one]: in assay [1], the “[Agonist] B-arrestin2 recruitment” value is given as “Non-Active”. Moreover, in assay [2] (setting [3]), the IC50 is 500 to 5000 nM.
The like results for `COc1nccnc1N1CCC(c2cc3nccnc3n(Cc3ccccc3C(F)(F)F)c2=O)CC1` [compound 9, 7-(1-(3-Methoxypyrazin-2-yl)piperidin-4-yl)-5-(2-(trifluoromethyl)benzyl)pyrido[2,3-b]pyrazin-6(5H)-one] were, in that order, “Non-Active” and 5000 to 100000 nM.
